Measured values taken from ChEMBL document CHEMBL4507274 (2021).

Columns and labels:
[1] = biological target: NT-3 growth factor receptor (Homo sapiens) (UniProt Q16288); settings: Compound concentration 100.0 nM
[2] = biological target: Fibroblast growth factor receptor 4 (Homo sapiens) (UniProt P22455); settings: Compound concentration 100.0 nM
[3] = biological target: G protein-coupled receptor kinase 4 (Homo sapiens) (UniProt P32298); settings: Compound concentration 100.0 nM
[4] = biological target: Serine/threonine-protein kinase VRK2 (Homo sapiens) (UniProt Q86Y07); settings: Compound concentration 100.0 nM
[5] = biological target: Death-associated protein kinase 3 (Homo sapiens) (UniProt O43293); settings: Compound concentration 100.0 nM
[6] = biological target: Serine/threonine-protein kinase Nek9 (Homo sapiens) (UniProt Q8TD19); settings: Compound concentration 100.0 nM
[7] = biological target: Cyclin-dependent kinase 17 (Homo sapiens) (UniProt Q00537); settings: Compound concentration 100.0 nM
[8] = biological target: Phosphorylase b kinase regulatory subunit alpha, liver isoform (Homo sapiens) (UniProt P46019); settings: Compound concentration 100.0 nM
[9] = biological target: Serine/threonine-protein kinase TAO2 (Homo sapiens) (UniProt Q9UL54); settings: Compound concentration 100.0 nM
[10] = biological target: T1, Dual specificity mitogen-activated protein kinase kinase 6 (Homo sapiens) (UniProt P52564); settings: Compound concentration 100.0 nM
T1 sequence (whole entry): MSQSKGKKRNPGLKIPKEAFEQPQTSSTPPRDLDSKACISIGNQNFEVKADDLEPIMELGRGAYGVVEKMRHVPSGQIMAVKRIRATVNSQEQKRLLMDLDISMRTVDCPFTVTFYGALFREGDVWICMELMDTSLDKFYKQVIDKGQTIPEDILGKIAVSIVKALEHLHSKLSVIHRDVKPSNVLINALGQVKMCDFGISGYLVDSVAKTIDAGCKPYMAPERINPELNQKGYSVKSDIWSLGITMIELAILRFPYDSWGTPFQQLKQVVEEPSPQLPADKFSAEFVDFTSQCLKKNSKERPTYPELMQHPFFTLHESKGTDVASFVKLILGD

[11] = tested on: Receptor-type tyrosine-protein kinase FLT3 (Homo sapiens), P36888 [D835V]; settings: Compound concentration 100.0 nM
[12] = biological target: Leucine-rich repeat serine/threonine-protein kinase 2 (Homo sapiens) (UniProt Q5S007); settings: Compound concentration 100.0 nM
[13] = biological target: Mast/stem cell growth factor receptor Kit (Homo sapiens) (UniProt P10721); settings: Compound concentration 100.0 nM
Mast/stem cell growth factor receptor Kit (Homo sapiens), sequence (P10721 whole entry): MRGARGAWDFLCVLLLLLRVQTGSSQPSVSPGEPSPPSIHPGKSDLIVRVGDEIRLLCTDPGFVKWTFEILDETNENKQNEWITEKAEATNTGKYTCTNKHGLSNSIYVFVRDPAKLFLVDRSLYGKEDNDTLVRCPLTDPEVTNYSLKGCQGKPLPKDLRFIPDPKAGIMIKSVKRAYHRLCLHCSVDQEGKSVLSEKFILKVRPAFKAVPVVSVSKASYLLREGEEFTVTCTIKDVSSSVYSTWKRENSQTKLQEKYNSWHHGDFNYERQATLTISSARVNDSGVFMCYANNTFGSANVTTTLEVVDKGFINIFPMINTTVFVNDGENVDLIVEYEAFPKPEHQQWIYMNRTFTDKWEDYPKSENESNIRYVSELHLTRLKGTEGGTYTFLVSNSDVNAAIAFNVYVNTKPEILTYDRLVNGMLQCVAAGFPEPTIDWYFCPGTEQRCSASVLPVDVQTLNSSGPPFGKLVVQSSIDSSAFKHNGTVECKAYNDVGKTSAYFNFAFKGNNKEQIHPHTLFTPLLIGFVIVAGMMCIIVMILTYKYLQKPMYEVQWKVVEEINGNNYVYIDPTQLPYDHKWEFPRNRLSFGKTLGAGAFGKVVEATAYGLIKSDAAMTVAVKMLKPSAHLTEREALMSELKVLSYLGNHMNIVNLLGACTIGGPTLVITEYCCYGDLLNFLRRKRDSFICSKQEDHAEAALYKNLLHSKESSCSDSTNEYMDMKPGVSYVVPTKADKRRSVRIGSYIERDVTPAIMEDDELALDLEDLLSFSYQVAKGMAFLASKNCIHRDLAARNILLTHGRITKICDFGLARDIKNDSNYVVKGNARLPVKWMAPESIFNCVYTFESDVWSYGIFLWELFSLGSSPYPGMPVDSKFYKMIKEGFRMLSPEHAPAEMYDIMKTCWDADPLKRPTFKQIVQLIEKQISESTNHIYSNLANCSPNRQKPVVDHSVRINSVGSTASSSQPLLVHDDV

[14] = biological target: Tyrosine-protein kinase Yes (Homo sapiens) (UniProt P07947); settings: Compound concentration 100.0 nM
[15] = biological target: Serine/threonine-protein kinase SIK2 (Homo sapiens) (UniProt Q9H0K1); settings: Compound concentration 100.0 nM
[16] = biological target: Serine/threonine-protein kinase RIO3 (Homo sapiens) (UniProt O14730); settings: Compound concentration 100.0 nM
[17] = biological target: Serine/threonine-protein kinase pim-1 (Homo sapiens) (UniProt P11309); settings: Compound concentration 100.0 nM
[18] = tested on: Proto-oncogene tyrosine-protein kinase receptor Ret (Homo sapiens), P07949 [M918T]; settings: Compound concentration 100.0 nM
[19] = biological target: Calcium/calmodulin-dependent protein kinase type II subunit delta (Homo sapiens) (UniProt Q13557); settings: Compound concentration 100.0 nM
[20] = biological target: Casein kinase II subunit alpha (Homo sapiens) (UniProt P68400); settings: Compound concentration 100.0 nM
[21] = biological target: Phosphatidylinositol 4,5-bisphosphate 3-kinase catalytic subunit alpha isoform (Homo sapiens) (UniProt P42336); settings: Compound concentration 100.0 nM
[22] = biological target: Protein kinase C delta type (Homo sapiens) (UniProt Q05655); settings: Compound concentration 100.0 nM
[23] = biological target: Ribosomal protein S6 kinase alpha-4 (Homo sapiens) (UniProt O75676); settings: Compound concentration 100.0 nM
Ribosomal protein S6 kinase alpha-4 (Homo sapiens), sequence (O75676 whole entry, looked up): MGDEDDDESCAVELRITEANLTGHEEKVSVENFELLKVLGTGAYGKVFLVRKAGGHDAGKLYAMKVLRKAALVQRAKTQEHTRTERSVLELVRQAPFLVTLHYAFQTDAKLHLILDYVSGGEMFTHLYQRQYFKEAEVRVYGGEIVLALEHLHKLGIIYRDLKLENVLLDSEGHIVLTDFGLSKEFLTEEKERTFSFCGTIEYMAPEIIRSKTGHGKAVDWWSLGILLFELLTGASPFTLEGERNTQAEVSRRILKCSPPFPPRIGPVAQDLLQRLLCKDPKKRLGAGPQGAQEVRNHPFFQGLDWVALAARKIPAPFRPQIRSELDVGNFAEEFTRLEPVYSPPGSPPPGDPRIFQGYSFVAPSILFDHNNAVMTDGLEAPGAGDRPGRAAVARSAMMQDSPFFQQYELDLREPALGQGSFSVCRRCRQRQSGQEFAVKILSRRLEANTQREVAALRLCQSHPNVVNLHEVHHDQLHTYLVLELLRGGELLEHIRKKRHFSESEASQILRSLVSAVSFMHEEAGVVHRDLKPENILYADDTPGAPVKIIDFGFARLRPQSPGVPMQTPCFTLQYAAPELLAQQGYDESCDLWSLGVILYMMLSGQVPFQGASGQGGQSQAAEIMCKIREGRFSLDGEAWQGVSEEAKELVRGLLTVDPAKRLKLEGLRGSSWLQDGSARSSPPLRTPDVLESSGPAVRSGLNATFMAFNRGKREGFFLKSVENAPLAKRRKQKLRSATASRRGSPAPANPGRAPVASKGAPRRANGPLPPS

[24] = biological target: Kappa-type opioid receptor (Homo sapiens, UniProt P41145); settings: Compound concentration 10.0 uM
[25] = biological target: Mitogen-activated protein kinase kinase kinase 1 (Homo sapiens) (UniProt Q13233); settings: Compound concentration 100.0 nM
[26] = biological target: Membrane-associated tyrosine- and threonine-specific cdc2-inhibitory kinase (Homo sapiens) (UniProt Q99640); settings: Compound concentration 100.0 nM
Membrane-associated tyrosine- and threonine-specific cdc2-inhibitory kinase (Homo sapiens), sequence (Q99640 whole entry): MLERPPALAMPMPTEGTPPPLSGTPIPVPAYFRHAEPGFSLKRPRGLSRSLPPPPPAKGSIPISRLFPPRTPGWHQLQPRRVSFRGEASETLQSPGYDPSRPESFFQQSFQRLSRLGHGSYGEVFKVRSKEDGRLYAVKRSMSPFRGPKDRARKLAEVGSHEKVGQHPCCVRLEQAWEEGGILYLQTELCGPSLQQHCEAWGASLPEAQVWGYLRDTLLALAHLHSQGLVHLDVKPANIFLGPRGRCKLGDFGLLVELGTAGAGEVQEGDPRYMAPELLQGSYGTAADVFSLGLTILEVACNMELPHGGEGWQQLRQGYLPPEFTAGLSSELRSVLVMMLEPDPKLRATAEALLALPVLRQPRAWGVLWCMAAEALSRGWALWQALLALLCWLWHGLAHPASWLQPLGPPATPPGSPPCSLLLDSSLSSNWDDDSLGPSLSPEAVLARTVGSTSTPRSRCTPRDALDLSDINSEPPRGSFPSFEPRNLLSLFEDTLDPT

[27] = biological target: Serine/threonine-protein kinase 33 (Homo sapiens) (UniProt Q9BYT3); settings: Compound concentration 100.0 nM
Serine/threonine-protein kinase 33 (Homo sapiens), sequence (Q9BYT3 whole entry, looked up): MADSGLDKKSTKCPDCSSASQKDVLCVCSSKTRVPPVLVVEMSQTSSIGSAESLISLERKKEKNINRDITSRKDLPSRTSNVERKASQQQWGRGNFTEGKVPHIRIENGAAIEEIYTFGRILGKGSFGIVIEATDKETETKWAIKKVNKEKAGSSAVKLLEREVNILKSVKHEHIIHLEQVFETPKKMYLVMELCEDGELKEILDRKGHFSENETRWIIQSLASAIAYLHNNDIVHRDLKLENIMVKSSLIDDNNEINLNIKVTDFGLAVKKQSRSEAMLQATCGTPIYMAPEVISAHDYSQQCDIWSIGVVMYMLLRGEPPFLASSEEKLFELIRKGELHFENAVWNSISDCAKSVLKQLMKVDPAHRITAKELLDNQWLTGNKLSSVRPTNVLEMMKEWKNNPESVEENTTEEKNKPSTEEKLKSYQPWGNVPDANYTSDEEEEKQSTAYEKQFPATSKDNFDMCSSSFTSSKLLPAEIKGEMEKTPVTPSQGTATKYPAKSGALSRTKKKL

[28] = biological target: Mitogen-activated protein kinase kinase kinase 5 (Homo sapiens) (UniProt Q99683); settings: Compound concentration 100.0 nM
Mitogen-activated protein kinase kinase kinase 5 (Homo sapiens), sequence (Q99683 whole entry): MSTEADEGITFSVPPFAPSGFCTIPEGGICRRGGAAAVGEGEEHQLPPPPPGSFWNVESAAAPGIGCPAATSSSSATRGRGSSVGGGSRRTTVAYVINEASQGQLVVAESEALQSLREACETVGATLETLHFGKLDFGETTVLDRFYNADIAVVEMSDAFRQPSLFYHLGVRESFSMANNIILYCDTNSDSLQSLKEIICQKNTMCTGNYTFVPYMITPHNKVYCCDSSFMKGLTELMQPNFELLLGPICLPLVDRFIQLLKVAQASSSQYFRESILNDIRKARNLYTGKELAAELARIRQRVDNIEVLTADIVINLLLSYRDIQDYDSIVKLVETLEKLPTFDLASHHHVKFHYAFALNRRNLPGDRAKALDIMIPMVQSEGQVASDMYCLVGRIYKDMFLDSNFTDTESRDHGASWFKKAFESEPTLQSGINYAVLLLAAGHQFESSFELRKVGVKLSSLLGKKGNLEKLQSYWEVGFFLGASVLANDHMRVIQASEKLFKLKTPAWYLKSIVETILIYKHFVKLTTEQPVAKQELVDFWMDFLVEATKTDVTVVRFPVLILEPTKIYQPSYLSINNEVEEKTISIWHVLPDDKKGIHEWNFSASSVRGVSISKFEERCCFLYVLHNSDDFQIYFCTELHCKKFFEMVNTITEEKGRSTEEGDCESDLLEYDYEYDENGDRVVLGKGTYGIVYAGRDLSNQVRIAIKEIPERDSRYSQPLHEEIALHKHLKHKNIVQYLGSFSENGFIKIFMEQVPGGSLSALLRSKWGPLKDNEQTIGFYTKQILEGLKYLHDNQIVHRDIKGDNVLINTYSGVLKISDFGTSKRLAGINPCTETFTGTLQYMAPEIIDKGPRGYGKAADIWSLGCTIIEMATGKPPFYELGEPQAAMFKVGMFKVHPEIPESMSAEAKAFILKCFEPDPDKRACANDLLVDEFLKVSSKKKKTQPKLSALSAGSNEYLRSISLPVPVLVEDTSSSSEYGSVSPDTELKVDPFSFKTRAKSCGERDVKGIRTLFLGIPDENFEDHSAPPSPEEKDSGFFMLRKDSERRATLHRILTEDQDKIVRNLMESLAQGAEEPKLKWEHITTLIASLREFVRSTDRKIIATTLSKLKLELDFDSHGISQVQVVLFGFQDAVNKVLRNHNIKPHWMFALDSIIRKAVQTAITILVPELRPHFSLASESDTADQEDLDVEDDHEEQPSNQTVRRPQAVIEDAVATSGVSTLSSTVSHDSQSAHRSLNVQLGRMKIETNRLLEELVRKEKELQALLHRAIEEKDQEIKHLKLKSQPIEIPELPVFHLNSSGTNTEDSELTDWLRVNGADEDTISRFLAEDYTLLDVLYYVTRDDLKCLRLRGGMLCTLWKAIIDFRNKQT

[29] = biological target: Tyrosine-protein kinase Fer (Homo sapiens) (UniProt P16591); settings: Compound concentration 100.0 nM
Tyrosine-protein kinase Fer (Homo sapiens), sequence (P16591 whole entry, looked up): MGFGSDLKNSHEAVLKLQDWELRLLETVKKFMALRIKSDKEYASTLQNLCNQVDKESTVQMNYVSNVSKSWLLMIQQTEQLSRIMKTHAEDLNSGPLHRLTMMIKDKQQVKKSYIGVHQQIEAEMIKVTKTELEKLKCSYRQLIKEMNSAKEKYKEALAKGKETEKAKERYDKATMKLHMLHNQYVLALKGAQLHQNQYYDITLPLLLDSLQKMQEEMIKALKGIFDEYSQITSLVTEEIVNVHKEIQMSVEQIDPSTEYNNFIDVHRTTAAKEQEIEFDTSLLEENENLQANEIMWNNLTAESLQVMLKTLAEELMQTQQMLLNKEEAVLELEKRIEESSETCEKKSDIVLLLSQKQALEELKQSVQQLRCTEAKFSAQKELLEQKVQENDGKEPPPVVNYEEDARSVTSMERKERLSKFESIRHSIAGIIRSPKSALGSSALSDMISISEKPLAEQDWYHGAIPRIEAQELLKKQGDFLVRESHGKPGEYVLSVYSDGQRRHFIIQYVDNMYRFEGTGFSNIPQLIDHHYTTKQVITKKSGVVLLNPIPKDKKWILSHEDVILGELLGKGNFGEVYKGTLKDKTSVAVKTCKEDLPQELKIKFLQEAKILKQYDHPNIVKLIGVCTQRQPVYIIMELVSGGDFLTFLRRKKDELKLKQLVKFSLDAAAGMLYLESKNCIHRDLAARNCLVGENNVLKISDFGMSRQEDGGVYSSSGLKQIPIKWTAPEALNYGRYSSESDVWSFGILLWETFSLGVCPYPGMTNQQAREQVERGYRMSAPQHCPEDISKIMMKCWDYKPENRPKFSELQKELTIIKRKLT

[30] = biological target: Phosphatidylinositol 5-phosphate 4-kinase type-2 beta (Homo sapiens) (UniProt P78356); settings: Compound concentration 100.0 nM
[31] = biological target: Serine/threonine-protein kinase 32B (Homo sapiens) (UniProt Q9NY57); settings: Compound concentration 100.0 nM
[32] = biological target: T2, Serine/threonine-protein kinase Sgk1 (Homo sapiens) (UniProt O00141); settings: Compound concentration 100.0 nM
T2 sequence (whole entry): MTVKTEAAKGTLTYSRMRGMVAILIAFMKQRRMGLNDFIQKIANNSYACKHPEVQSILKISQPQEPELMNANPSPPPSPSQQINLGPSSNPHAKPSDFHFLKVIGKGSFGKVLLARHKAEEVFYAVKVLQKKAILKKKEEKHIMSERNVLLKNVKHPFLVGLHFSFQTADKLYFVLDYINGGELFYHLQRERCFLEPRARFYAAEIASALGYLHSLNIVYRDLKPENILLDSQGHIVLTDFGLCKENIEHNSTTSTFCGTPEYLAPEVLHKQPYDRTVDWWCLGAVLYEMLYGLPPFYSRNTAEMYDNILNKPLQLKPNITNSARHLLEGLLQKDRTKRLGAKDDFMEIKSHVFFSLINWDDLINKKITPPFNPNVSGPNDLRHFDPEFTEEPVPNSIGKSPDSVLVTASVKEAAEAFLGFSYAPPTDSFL

[33] = tested on: Phosphatidylinositol 4,5-bisphosphate 3-kinase catalytic subunit alpha isoform (Homo sapiens), P42336 [M1043I]; settings: Compound concentration 100.0 nM
[34] = biological target: Serine/threonine-protein kinase Nek10 (Homo sapiens) (UniProt Q6ZWH5); settings: Compound concentration 100.0 nM

SMILES	residual activity [1] [%]	residual activity [2] [%]	residual activity [3] [%]	residual activity [4] [%]	residual activity [5] [%]	residual activity [6] [%]	residual activity [7] [%]	residual activity [8] [%]	residual activity [9] [%]	residual activity [10] [%]	residual activity [11] [%]	residual activity [12] [%]	residual activity [13] [%]	residual activity [14] [%]	residual activity [15] [%]	residual activity [16] [%]	residual activity [17] [%]	residual activity [18] [%]	residual activity [19] [%]	residual activity [20] [%]	also measured
Cn1cc(Cl)c2c(Oc3c(F)cc(Nc4cc(Cl)nc(N)n4)cc3F)ccnc21 [BAY-4900]	76	86	100	81	100	100	100	100	100	100	91	75	78	93	100	93	100	92	95	98	residual activity [21]: 79%; residual activity [22]: 100%; residual activity [23]: 100%; inhibition [24]: 54.4%; residual activity [25]: 76%; residual activity [26]: 100%; residual activity [27]: 100%; residual activity [28]: 97%; residual activity [29]: 100%; residual activity [30]: 76%; residual activity [31]: 99%; residual activity [32]: 80%; residual activity [33]: 64%; residual activity [34]: 66%
Cc1c[nH]c2nccc(Oc3c(F)cc(Nc4cc(Cl)nc(N)n4)cc3F)c12 [BAY-549]	86	100	100	76	97	96	81	89	100	99	90	100	77	96	100	93	100	100	90	100	residual activity [21]: 83%; residual activity [22]: 100%; residual activity [23]: 83%; inhibition [24]: 64.6%; residual activity [25]: 82%; residual activity [26]: 98%; residual activity [27]: 85%; residual activity [28]: 98%; residual activity [29]: 100%; residual activity [30]: 90%; residual activity [31]: 71%; residual activity [32]: 74%; residual activity [33]: 66%; residual activity [34]: 75%
